{"source": "patent US20030056788A1", "about": "“Partial liquid breathing of fluorocarbons” (priority 1991, published 2003)", "key": {"[1]": {"test": "Surface and interfacial tensions and spreading coefficients of perfluorocarbons on saline", "type": "physicochemical", "design": "S(o on w) spreading coefficient: unit: mN/m", "settings": "T = 25 C; for γo/w (interfacial tension oil/water) / S(o on w) spreading coefficient: on saline; for S(o on w) spreading coefficient: S = γw/a − (γw/o + γo/a)", "description": "The ability of a given substance to cover a measured surface area can be described by its spreading coefficient. The spreading coefficients for fluorocarbons can be expressed by the following equation:\nS(o on w)=γw/a−(γw/o+γo/a)\nWhere S (o on w) represents the spreading coefficient; γ=interfacial tension; w/a=water/air; w/o=water/oil; and o/a=oil/air.\nFluorocarbons having spreading coefficients of at least one are particularly preferred. If the spreading coefficient is negative, the compound will tend to remain as a lens on the membrane surface. Adequate coverage of the lung surface is important for restoring oxygen and carbon dioxide transfer and for lubricating the lung surfaces to minimize further pulmonary trauma.\nEach perfluorocarbon tested is provided together with its molecular weight and the specific variables that are used to calculate the spreading coefficient S (o on w). The perfluorocarbons reported are PFOB, perfluorotributylamine (FC-17), perfluorodecalin (APF-140), dimethyl perfluorodecalin (APF-175), trimethyl decalin (APF-200), perfluoroperhydrophenanthrene (APF-215), pentamethyl decalin (APF-240), and octamethyl decalin (APF-260)."}, "[2]": {"test": "Vapor pressure of fluorocarbons"}, "[3]": {"tested_on": "rabbits following lung lavage to remove endogenous surfactant", "test": "Partial liquid ventilation with PFOB in rabbit model of respiratory insufficiency induced by lung lavage", "type": "in vivo, New Zealand rabbits", "settings": "rabbits after lung lavage", "description": "The following examples provide information relating to the effect of PFOB treatment on respiratory insufficiency in an experimental rabbit model. The general protocol for partial liquid ventilation of the rabbits is described below.\nNew Zealand rabbits weighing between 2.8 and 3.0 kg were anesthetized with 50 mg/kg of […] sodium iv and a cannula was inserted through a tracheotomy midway along the trachea with its tip proximal to the carina. Ventilation with a Servo ventilator 900C (Siemens-Elema, Sweden) was initiated using pure oxygen and zero end-expiratory pressure with a constant tidal volume of 12 ml/kg, frequency of 30/min and inspiratory time of 35%. Anesthesia was maintained with additional doses of pentobarbital, as required, and pancuronium bromide was administered as an intravenous bolus (0.1 mg/kg) and followed by a continuous infusion (0.1 mg/kg/hr) for muscle paralyzation. A solution of 5% dextrose and 0.45% NaCl was administered continuously at a rate of 10 ml/kg/hr as a maintenance fluid. A heating pad maintained core temperature at 37±1° C., monitored by an esophageal thermistor (Elektroalboratoriet, Copenhagen).\nLeft femoral artery and vein were each cannulated with polyvinyl catheters for arterial and central venous pressure recording and blood sampling. A special indwelling catheter (Mikro-pO2-Messkatheter, Licox) was inserted into the right femoral artery for continuous oxygen pressure monitoring (Licox, GMS, Germany). Arterial blood gas and Hb (hemoglobin) measurements were made by Osm-2 Hemoximeter and ABL-330 (Radiometer Copenhagen). Lung mechanics and end-tidal CO2 were measured by means of Lung Mechanics Calculator 940 (Siemens-Elema, Sweden) and CO2 Analyzer 930 (Siemens-Elema, Sweden), respectively. Intravascular pressure monitoring was made by using a Statham P23XL transducer (Spectramed, USA) and all tracings including ECG were recorded by a Sirecust 1280 recorder (Siemens).\nAfter the control observations were made, lung lavage with 30 ml/kg of warm saline (37° C.) was performed to induce respiratory insufficiency. After the first lavage, positive end expiratory pressure (PEEP) was increased to 6 cmH2O and lung lavages were repeated to get an arterial pO2 below 100 mmHg with the initial ventilatory settings (between 4-6 lavages). […]\nAfter respiratory insufficiency was induced, PFOB liquid was administered through the tracheal cannula into the animal's lungs with incremental doses of 3 ml/kg up to a total volume of 15 ml/kg. Animals were ventilated for 15 minutes after each dose of PFOB instillation with the same ventillatory settings as mentioned above and thereafter arterial blood gases, cardiocirculatory parameters and pulmonary mechanics were measured. […]"}}, "data": [{"molecule": "dimethyl perfluorodecalin [APF-175]", "values": [{"measurement": "γo/a (interfacial tension oil/air)", "setting": "[1]", "value": 20.7, "unit": "mN/m"}, {"measurement": "γo/w (interfacial tension oil/water)", "setting": "[1]", "value": 55.9, "unit": "mN/m"}, {"measurement": "S(o on w) spreading coefficient", "setting": "[1]", "value": "−4.6"}]}, {"molecule": "octamethyl decalin [APF-260]", "values": [{"measurement": "γo/a (interfacial tension oil/air)", "setting": "[1]", "value": 22.4, "unit": "mN/m"}, {"measurement": "γo/w (interfacial tension oil/water)", "setting": "[1]", "value": 56.1, "unit": "mN/m"}, {"measurement": "S(o on w) spreading coefficient", "setting": "[1]", "value": "−6.5"}]}, {"molecule": "FC1(F)C(F)(F)C(F)(F)C2(F)C(F)(C1(F)F)C(F)(F)C(F)(F)C1(F)C(F)(F)C(F)(F)C(F)(F)C(F)(F)C12F", "note": "(stereo not drawn) [APF-215, perfluoroperhydrophenanthrene]", "values": [{"measurement": "γo/a (interfacial tension oil/air)", "setting": "[1]", "value": 21.6, "unit": "mN/m"}, {"measurement": "γo/w (interfacial tension oil/water)", "setting": "[1]", "value": 56.0, "unit": "mN/m"}, {"measurement": "S(o on w) spreading coefficient", "setting": "[1]", "value": "−5.6"}]}, {"molecule": "FC1(F)C(F)(F)C(F)(F)C2(F)C(F)(F)C(F)(F)C(F)(F)C(F)(F)C2(F)C1(F)F", "note": "(stereo not drawn) [APF-140, perfluorodecalin]", "values": [{"measurement": "γo/a (interfacial tension oil/air)", "setting": "[1]", "value": 18.2, "unit": "mN/m"}, {"measurement": "γo/w (interfacial tension oil/water)", "setting": "[1]", "value": 55.3, "unit": "mN/m"}]}, {"molecule": "FC(F)(F)C(F)(F)C(F)(F)C(F)(F)C(F)(F)C(F)(F)Br", "note": "[1-bromotridecafluorohexane]", "values": [{"measurement": "vapor pressure (in words)", "setting": "[2]", "value": "relatively high vapor pressures"}]}, {"molecule": "FC(F)(F)C(F)(F)C(F)(F)C(F)(F)N(C(F)(F)C(F)(F)C(F)(F)C(F)(F)F)C(F)(F)C(F)(F)C(F)(F)C(F)(F)F", "note": "[FC-47, perfluorotributylamine]", "values": [{"measurement": "γo/a (interfacial tension oil/air)", "setting": "[1]", "value": 17.9, "unit": "mN/m"}, {"measurement": "γo/w (interfacial tension oil/water)", "setting": "[1]", "value": 55.1, "unit": "mN/m"}]}, {"molecule": "pentamethyl decalin [APF-240]", "values": [{"measurement": "γo/a (interfacial tension oil/air)", "setting": "[1]", "value": 22.6, "unit": "mN/m"}, {"measurement": "γo/w (interfacial tension oil/water)", "setting": "[1]", "value": 56.3, "unit": "mN/m"}, {"measurement": "S(o on w) spreading coefficient", "setting": "[1]", "value": "−6.9"}]}, {"molecule": "FC(F)(F)C(F)(F)C(F)(F)C(F)(F)C(F)(F)C(F)(F)C(F)(F)C(F)(F)Br", "note": "[PFOB, 1-bromo-heptadecafluoro-octane]", "values": [{"measurement": "vapor pressure", "setting": "[2]; 37° C.", "value": 14, "unit": "torr"}, {"measurement": "arterial oxygen pressure as percent of original (pre-lavage) value", "setting": "[3]; 15 ml/kg PFOB intratracheal, n = 6", "value": 83, "unit": "%"}, {"measurement": "mean arterial carbon dioxide tension (in words)", "setting": "[3]; after PFOB administration, post-lavage level 48.7 mmHg", "value": "decreased"}, {"measurement": "mean airway pressure (in words)", "setting": "[3]; increasing volumes of PFOB", "value": "decreased mean airway pressure"}, {"measurement": "arterial oxygen tension (in words)", "setting": "[3]; increasing volumes of PFOB 3-15 ml/kg intratracheal, compared to saline treated controls", "value": "significantly improved the arterial oxygen tension"}, {"measurement": "γo/a (interfacial tension oil/air)", "setting": "[1]", "value": 18.0, "unit": "mN/m"}, {"measurement": "γo/w (interfacial tension oil/water)", "setting": "[1]", "value": 51.3, "unit": "mN/m"}]}, {"molecule": "trimethyl decalin [APF-200]", "values": [{"measurement": "γo/a (interfacial tension oil/air)", "setting": "[1]", "value": 21.4, "unit": "mN/m"}, {"measurement": "γo/w (interfacial tension oil/water)", "setting": "[1]", "value": 55.9, "unit": "mN/m"}, {"measurement": "S(o on w) spreading coefficient", "setting": "[1]", "value": "−5.3"}]}]}
